This is an account of results in article PMC7900708 (Biochemistry and Biophysics Reports, 2021).

In assay [1] the target is T1, MtuUng (Mycobacterium tuberculosis uracil DNA glycosylase) (Mycobacterium tuberculosis, UniProt P9WFQ9).
T1 sequence (P9WFQ9 1-227): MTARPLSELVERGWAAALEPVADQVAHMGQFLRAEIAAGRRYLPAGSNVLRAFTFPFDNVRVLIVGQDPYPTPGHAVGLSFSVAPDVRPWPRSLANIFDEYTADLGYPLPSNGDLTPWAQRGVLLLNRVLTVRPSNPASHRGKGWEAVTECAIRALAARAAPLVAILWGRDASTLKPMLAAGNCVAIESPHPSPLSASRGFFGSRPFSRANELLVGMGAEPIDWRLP
Briefly: Molecular beacon fluorescence assay of MtuUng activity and inhibition. Type of assay: biochemical.

For assay [2], the system named is uracil DNA glycosylase. To be noted: cited from earlier work.

As to `O=c1[nH]ccc(=S)[nH]1` [4-Thio-Uracil], in assay [1], the IC50 (commonly the concentration that inhibits the measured activity by half) was determined as 3.57 ± 0.35 mM.

`Nc1c[nH]c(=O)[nH]c1=O` [5-Amino-Uracil] came in with an IC50 in assay [1] of 7.18 ± 0.97 mM.

The molecule `O=c1[nH]cc(Br)c(=O)[nH]1` [5-Bromo-Uracil] gave an IC50 in assay [1] of 13.6 ± 0.73 mM.

Regarding `O=c1[nH]cc(Cl)c(=O)[nH]1` [5-Chloro-Uracil], in assay [1], it took 8.71 ± 0.7 mM to reach half-maximal inhibition (IC50) and the Ki – broadly, a measure of affinity in units of concentration, obtained from inhibition or displacement – stood at 7.04 mM. Moreover, in assay [1] (different inhibitor concentrations, 0.3 nM MtuUng), the “type of inhibition (Lineweaver-Burk plot)” value is listed as “linear mixed inhibition”.

`O=c1[nH]cc(F)c(=O)[nH]1` [5-Fluoro-Uracil]: inhibition in assay [1] was half-maximal at 50.2 ± 3.85 mM (IC50).

`O=c1[nH]cc(I)c(=O)[nH]1` [5-Iodo-Uracil] displayed an IC50 in assay [1] of 4.92 ± 0.51 mM.

`O=[N+]([O-])c1cnc(O)nc1O` [5-Nitro-Uracil] gave an IC50 in assay [1] of 10.8 ± 0.32 mM.

Regarding `O=C1CC(=O)NC(=O)N1` [Barbituric acid], 7.29 ± 0.32 mM corresponded to half-maximal inhibition in assay [1] (IC50).

In turn, `O=c1cc[nH]c(=O)[nH]1` [Uracil] displayed an IC50 in assay [1] of 2.05 ± 0.3 mM. The mode of inhibition result in assay [2] is given as “non-competitive”.
